These results are taken from US7803930B2, “Antisense modulation of apolipoprotein B-expression” (Isis Pharmaceuticals, Inc., priority 2002, dated 2010).

In the oligonucleotide strings, read from the 5' end, every base follows the letter of its sugar. An asterisk marks phosphorothioate; unmarked linkages are phosphodiester. Other units and linkages are bracketed, terminal groups are in braces. A string of capitals states the bases alone. e = 2'-O-(2-methoxyethyl) (MOE); [5mC] = 5-methylcytosine; d = 2'-deoxy (DNA)

The subject of the series is human apolipoprotein B mRNA. The experiment in a line: Inhibition of human apolipoprotein B mRNA levels in HepG2 cells, quantitative real-time PCR. In kind it is cell-based. To be noted: HepG2 cells; for % inhibition of apolipoprotein B mRNA levels: normalized to untreated control, average of two experiments. A digest of the protocol: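 HepG2 cells at 80% confluency were transfected with antisense oligonucleotide using 3.75 μg/mL Lipofectin in Opti-MEM for 4-7 h and harvested 16-24 h after treatment. Apolipoprotein B mRNA was measured by real-time RT-PCR and normalized to GAPDH or RiboGreen total RNA. Percent inhibition came from untreated-control standard curves.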

Where [1] appears, read: Table 17 variable gap, 50 nM, averages from three experiments.
[2] abbreviates: Table 17 variable gap, 150 nM, averages from three experiments.
[3] abbreviates: 50 nm oligonucleotide, variable deoxy gap position.
Setting [4] is: 150 nm oligonucleotide, variable deoxy gap position.

Consider “308629 (eA*eG*e[5mC]*e[5mC]*eT*d[5mC]*dA*dG*dT*d[5mC]*dT*dG*d[5mC]*dT*dT*e[5mC]*eG*e[5mC]*eG*e[5mC]; antisense) [compound 308629]”, for which the “% INHIB 50 nm” value (Table 13 gene walk, 50 nM, averages from two experiments) is recorded as 77%. Moreover, where the note is “Table 13 gene walk, 150 nM, averages from two experiments”, the “% INHIB 150 nm” value is reported as 95%.
With “308630 (GCCTCAGTCTGCTTCGCGCC; 0-10-10 MOE gapmer, phosphorothioate, chemistry not fully specified) [compound 308630]”, the “% INHIB 50 nm” value under setting [1] is listed as 69%. Further, under setting [2], the “% INHIB 150 nm” value turned out to be 89%.
Regarding “308631 (AGGTTACCAGCCACATGCAG; 0-10-10 MOE gapmer, phosphorothioate, chemistry not fully specified) [compound 308631]”, the “% INHIB 50 nm” value under setting [3] stood at 74%. For the same substance, the “% INHIB 150 nm” value under setting [4] was 94%.
With “308632 (GCCTCAGTCTGCTTCGCACC; 0-10-10 MOE gapmer, phosphorothioate, chemistry not fully specified) [compound 308632]”, the “% INHIB 50 nm” value under setting [3] amounted to 41%. For the same substance, the “% INHIB 150 nm” value under setting [4] was 97%.
For the substance “308633 (GCCTCAGTCTGCTTCGCGCC; 10-10-0 MOE gapmer, phosphorothioate, chemistry not fully specified) [compound 308633]”, under setting [1], the “% INHIB 50 nm” value turned out to be 66%. Besides, the “% INHIB 150 nm” value under setting [2] turned out to be 83%.
“308634 (AGGTTACCAGCCACATGCAG; 10-10-0 MOE gapmer, phosphorothioate, chemistry not fully specified) [compound 308634]”: the “% INHIB 50 nm” value under setting [3] was 45%. Besides, the “% INHIB 150 nm” value under setting [4] is on record as 67%.
In the case of “308635 (GCCTCAGTCTGCTTCGCACC; 10-10-0 MOE gapmer, phosphorothioate, chemistry not fully specified) [compound 308635]”, under setting [3], the “% INHIB 50 nm” value stood at 69%. Moreover, the “% INHIB 150 nm” value under setting [4] stood at 93%.
Consider “308636 (GCCTCAGTCTGCTTCGCGCC; all C 5-methyl, all phosphorothioate, sugars by position not given here; further chemistry not fully specified) [compound 308636]”, for which, under setting [1], the “% INHIB 50 nm” value is reported as 81%. For the same substance, under setting [2], the “% INHIB 150 nm” value was determined as 91%.
As for “308637 (AGGTTACCAGCCACATGCAG; 1-10-9 MOE gapmer, phosphorothioate, chemistry not fully specified) [compound 308637]”, the “% INHIB 50 nm” value under setting [3] amounted to 79%. Under setting [4], the “% INHIB 150 nm” value amounted to 95%.
“308638 (GCCTCAGTCTGCTTCGCACC; 1-10-9 MOE gapmer, phosphorothioate, chemistry not fully specified) [compound 308638]”: the “% inhibition of apolipoprotein B mRNA levels” value (shortened to “% inhibition”) reads like this: (12.5 nM oligonucleotide) 42%; (37 nM oligonucleotide) 73%; (75 nM oligonucleotide) 91%; (150 nM oligonucleotide) 96%; (300 nM oligonucleotide) 97%. Also, under setting [3], the “% INHIB 50 nm” value was 91%. Moreover, the “% INHIB 150 nm” value under setting [4] worked out at 94%.
“308639 (GCCTCAGTCTGCTTCGCGCC; all C 5-methyl, all phosphorothioate, sugars by position not given here; further chemistry not fully specified) [compound 308639]”: the “% INHIB 50 nm” value under setting [1] was found to be 86%. Also, the “% INHIB 150 nm” value under setting [2] is recorded as 94%.
Turning to “308640 (AGGTTACCAGCCACATGCAG; 2-10-8 MOE gapmer, phosphorothioate, chemistry not fully specified) [compound 308640]”, under setting [3], the “% INHIB 50 nm” value is on record as 76%. Moreover, under setting [4], the “% INHIB 150 nm” value worked out at 96%.
As to “308641 (GCCTCAGTCTGCTTCGCACC; 2-10-8 MOE gapmer, phosphorothioate, chemistry not fully specified) [compound 308641]”, the “% INHIB 50 nm” value under setting [3] stood at 77%. For the same substance, the “% INHIB 150 nm” value under setting [4] came to 89%.
Regarding “308642 (GCCTCAGTCTGCTTCGCGCC; 3-10-7 MOE gapmer, phosphorothioate, chemistry not fully specified) [compound 308642]”, the “% inhibition” value (12.5 nM oligonucleotide) is reported as 59%; the “% inhibition” value (37 nM oligonucleotide) stood at 84%; the “% inhibition” value (75 nM oligonucleotide) was 91%; the “% inhibition” value (150 nM oligonucleotide) is given as 97%; the “% inhibition” value (300 nM oligonucleotide) was 98%. Further, under setting [1], the “% INHIB 50 nm” value came to 85%. Under setting [2], the “% INHIB 150 nm” value worked out at 95%.
For “308643 (antisense AGGTTACCAGCCACATGCAG; 3-10-7 2'-MOE gapmer, phosphorothioate, chemistry not fully specified) [compound 308643]”, under setting [3], the “% INHIB 50 nm” value is 56%. For the same substance, the “% INHIB 150 nm” value under setting [4] is reported as 96%.
Take “308644 (antisense GCCTCAGTCTGCTTCGCACC; 3-10-7 2'-MOE gapmer, phosphorothioate, chemistry not fully specified) [compound 308644]”: the “% INHIB 50 nm” value under setting [3] was found to be 71%. Besides, the “% INHIB 150 nm” value under setting [4] came to 93%.
As to “308645 (antisense GCCTCAGTCTGCTTCGCGCC; 4-10-6 2'-MOE gapmer, phosphorothioate, chemistry not fully specified) [compound 308645]”, the “% INHIB 50 nm” value under setting [1] was found to be 57%. Under setting [2], the “% INHIB 150 nm” value was found to be 98%.
Take “308646 (antisense AGGTTACCAGCCACATGCAG; 4-10-6 2'-MOE gapmer, phosphorothioate, chemistry not fully specified) [compound 308646]”: under setting [3], the “% INHIB 50 nm” value was found to be 50%. The “% INHIB 150 nm” value under setting [4] was found to be 76%.
For the substance “308647 (antisense GCCTCAGTCTGCTTCGCACC; 4-10-6 2'-MOE gapmer, phosphorothioate, chemistry not fully specified) [compound 308647]”, the “% INHIB 50 nm” value under setting [3] is 53%. Also, the “% INHIB 150 nm” value under setting [4] came to 86%.
Take “308648 (antisense GCCTCAGTCTGCTTCGCGCC; 6-10-4 2'-MOE gapmer, phosphorothioate, chemistry not fully specified) [compound 308648]”: the “% INHIB 50 nm” value under setting [1] came to 78%. Also, the “% INHIB 150 nm” value under setting [2] is given as 89%.
Turning to “308649 (antisense AGGTTACCAGCCACATGCAG; 6-10-4 2'-MOE gapmer, phosphorothioate, chemistry not fully specified) [compound 308649]”, the “% INHIB 50 nm” value under setting [3] is recorded as 68%. In addition, under setting [4], the “% INHIB 150 nm” value worked out at 91%.
The like results for “308650 (antisense GCCTCAGTCTGCTTCGCACC; 6-10-4 2'-MOE gapmer, phosphorothioate, chemistry not fully specified) [compound 308650]” were, in that order, 74% and 94%.
Consider “308651 (antisense GCCTCAGTCTGCTTCGCGCC; 7-10-3 2'-MOE gapmer, phosphorothioate, chemistry not fully specified) [compound 308651]”, for which the “% inhibition” value (12.5 nM oligonucleotide) amounted to 57%; the “% inhibition” value (37 nM oligonucleotide) is given as 76%; the “% inhibition” value (75 nM oligonucleotide) is 84%; the “% inhibition” value (150 nM oligonucleotide) is recorded as 90%; the “% inhibition” value (300 nM oligonucleotide) is given as 88%. Further, the “% INHIB 50 nm” value under setting [1] is given as 87%. The “% INHIB 150 nm” value under setting [2] turned out to be 88%.
